Test results from ChEMBL document CHEMBL5512692, “Colloidal Aggregation Confounds Cell-Based Covid-19 Antiviral Screens” (J Med Chem, 2024).
Active and inactive are the calls of the source. No cut-off for these calls is given here.

What was measured:
[1] = Absorption property of compound in DMEM media at 100 to 200 uM at 500 to 700 nm by luciferase assay; assay type: physicochemical; conditions: dose 100-200 µM
[2] = Aggregation property of compound in DMEM media assessed as critical aggregation concentration by DLS assay; assay type: physicochemical
SARS-CoV-2 [3] = assay: Antiviral activity against SARS-CoV-2; assay type: functional, organism-based; conditions: Severe acute respiratory syndrome coronavirus 2
Sus scrofa [4] = organism: Sus scrofa; assay: (§1) Inhibition of porcine heart MDH using oxaloacetic acid as substrate assessed as enzyme recovery by measuring residual activity at approximately IC90 preincubated for 5 mins in presence of 10 mg/ml BSA followed by enzyme addition and measured after 5 mins by absorbance based analysis relative to control; conditions: time 10.0 min
[5] = Aggregation property of compound in 50 mM KPi buffer at pH 7 assessed as critical aggregation concentration by DLS assay; assay type: physicochemical
[6] = Inhibition of porcine heart MDH using oxaloacetic acid as substrate preincubated for 5 mins followed by substrate and […] addition and measured for 80 sec by absorbance based analysis; parameters: species or system Sus scrofa
Sus scrofa [7] = organism: Sus scrofa; assay: as §1, with “of triton X-0.01%” for “of 10 mg/ml BSA”, “by substrate and […]” for “by enzyme”, “measured for 80 sec” for “measured after 5 mins”; conditions: time 380.0 sec
SARS-CoV-2 [8] = assay: Antiviral activity against SARS CoV-2 spike-pseudotyped lentivirus infected in human A549-hACE2-TMPRSS2 cells assessed as inhibition of viral entry incubated for 24 hrs in absence of BSA by luciferase reporter assay; assay type: functional, organism-based; conditions: Severe acute respiratory syndrome coronavirus 2, A549-hACE2-TMPRSS2, 24 h
SARS-CoV-2 [9] = assay: Antiviral activity against luciferase independent SARS CoV-2 spike-pseudotyped lentivirus infected in human A549-hACE2-TMPRSS2 cells assessed as inhibition of viral entry at 31.6 to 63.3 uM compound spin-down for 1 hr followed by viral infection and measured after 24 hrs by luciferase reporter assay; assay type: functional, organism-based; conditions: Severe acute respiratory syndrome coronavirus 2, dose 31.6-63.3 µM, time 25.0 hrs
SARS-CoV-2 [10] = assay: Antiviral activity against luciferase independent SARS CoV-2 spike-pseudotyped lentivirus infected in human A549-hACE2-TMPRSS2 cells assessed as inhibition of viral entry by measuring reduction in luciferase activity incubated for 24 hrs by luciferase reporter assay; assay type: functional, organism-based; conditions: Severe acute respiratory syndrome coronavirus 2
SARS-CoV-2 [11] = assay: Antiviral activity against luciferase independent SARS CoV-2 spike-pseudotyped lentivirus infected in human A549-hACE2-TMPRSS2 cells assessed as inhibition of viral entry measured after 24 hrs before centrifugation by luciferase reporter assay; assay type: functional, organism-based; conditions: Severe acute respiratory syndrome coronavirus 2, A549-hACE2-TMPRSS2
[12] = Cytotoxicity against human A549-hACE2-TMPRSS2 assessed as reduction in cell viability incubated for 24 hrs by MTT assay; assay type: toxicity, cell-based; conditions: a549-hace2-tmprss2, 24 h
SARS-CoV-2 [13] = assay: Antiviral activity against SARS CoV-2 spike-pseudotyped lentivirus infected in human A549-hACE2-TMPRSS2 cells assessed as inhibition of viral entry preincubated with 10 mg/ml BSA for 5 mins followed by viral infection and further incubated for 24 hrs by luciferase reporter assay; assay type: functional, organism-based; conditions: Severe acute respiratory syndrome coronavirus 2, A549-hACE2-TMPRSS2

Oc1ccc(-c2[o+]c3cc(O)cc(O)c3cc2O)cc1.[Cl-] [PELARGONIDIN CHLORIDE]
Activity [1]: Not Active | CAC [2]: 56 µM | EC50 (SARS-CoV-2 [3]): 50 µM | Activity (Sus scrofa [4]): 130% | CAC [5]: 79 µM | IC50 [6]: 8.1 µM | Activity (Sus scrofa [7]): 83%

CC(C)C(=O)OCC(=O)[C@@]12O[C@H](C3CCCCC3)O[C@@H]1C[C@H]1[C@@H]3CCC4=CC(=O)C=C[C@]4(C)[C@H]3[C@@H](O)C[C@@]12C [CICLESONIDE]
Activity [1]: Not Active | CAC [2]: 4.2 µM | EC50 (SARS-CoV-2 [3]): 20.5 µM | Activity (Sus scrofa [4]): 57% | CAC [5]: 8.1 µM | IC50 [6]: 10 µM | Activity (Sus scrofa [7]): 66.1%

Cc1cc(O)c2c(=O)c3c(O)cc(O)c4c5c(O)cc(O)c6c(=O)c7c(O)cc(C)c8c1c2c(c34)c(c78)c65 [HYPERICIN]
Activity [1]: Not Active | CAC [2]: 3.7 µM | EC50 (SARS-CoV-2 [3]): 1.24 µM | Activity (Sus scrofa [4]): 99% | CAC [5]: 3.3 µM | EC50 (SARS-CoV-2 [8]): 84.4 µM | IC50 [6]: 0.3 µM | Activity (Sus scrofa [7]): 90%

COc1c(O)cc2oc(-c3ccccc3)cc(=O)c2c1O [OROXYLIN A]
Activity [1]: Not Active | Activity (SARS-CoV-2 [9]): Active | EC50 (SARS-CoV-2 [3]): 20 µM | Activity (Sus scrofa [4]): 33% | IC50 [6]: 73 µM | Activity (Sus scrofa [7]): 42%

O=C(O[C@@H]1Cc2c(O)cc(O)cc2O[C@@H]1c1cc(O)c(O)c(O)c1)c1cc(O)c(O)c(O)c1 [EPIGALOCATECHIN GALLATE]
Activity (SARS-CoV-2 [9]): Active | EC50 (SARS-CoV-2 [3]): 5.38 µM | Activity (Sus scrofa [4]): 53% | EC50 (SARS-CoV-2 [8]): 35.1 µM | Activity (Sus scrofa [7]): 63.3%

O=c1c(O)c(-c2ccc(O)c(O)c2)oc2cc(O)cc(O)c12 [QUERCETIN]
Activity [1]: Not Active | CAC [2]: 100 µM | Activity (Sus scrofa [4]): 108% | CAC [5]: 62 µM | IC50 [6]: 3.3 µM | Activity (Sus scrofa [7]): 61%

C[C@]12CC[C@@H]3c4ccc(O)cc4C[C@@H](CCCCCCCCC[S+]([O-])CCCC(F)(F)C(F)(F)F)[C@H]3[C@@H]1CC[C@@H]2O (stereo partly drawn) [FULVESTRANT]
Activity (SARS-CoV-2 [10]): Active | EC50 (SARS-CoV-2 [11]): 0.19 µM

CC1(C)Cc2c(-c3ccccc3)c(-c3ccc(Cl)cc3)c(CC(=O)O)n2C1 [LICOFELONE]
Activity [12]: Toxic | Activity [1]: Not Active | CAC [2]: 5.5 µM | CAC [5]: 54 µM | IC50 [6]: 23 µM

CNC(=O)c1cc(Oc2ccc(NC(=O)Nc3ccc(Cl)c(C(F)(F)F)c3)cc2)ccn1 [SORAFENIB]
Activity (SARS-CoV-2 [10]): Active | EC50 (SARS-CoV-2 [8]): 0.41 µM | EC50 (SARS-CoV-2 [11]): 0.27 µM | EC50 (SARS-CoV-2 [13]): 21 µM

O=c1cc(-c2ccc(O)c(O)c2)oc2cc(O)cc(O)c12 [LUTEOLIN]
Activity [1]: Not Active | CAC [2]: 28 µM | EC50 (SARS-CoV-2 [3]): 10 µM | Activity (Sus scrofa [4]): 107% | CAC [5]: 83 µM | IC50 [6]: 15 µM | Activity (Sus scrofa [7]): 89%

CC(C)=CCc1c(O)ccc(C(=O)/C=C/c2ccc(O)cc2)c1O [ISOBAVACHALCONE]
Activity [12]: Toxic | Activity [1]: Not Active | CAC [2]: 63 µM | Activity (Sus scrofa [4]): 108% | CAC [5]: 6.1 µM | IC50 [6]: 36 µM | Activity (Sus scrofa [7]): 109%

O=c1cc(-c2ccc(O)c(-c3c(O)cc(O)c4c(=O)cc(-c5ccc(O)cc5)oc34)c2)oc2cc(O)cc(O)c12 [AMENTOFLAVONE]
CAC [2]: 100 µM | Activity (Sus scrofa [4]): 78% | CAC [5]: 25 µM | IC50 [6]: 6.1 µM | Activity (Sus scrofa [7]): 93%

C=C[C@@](C)(/C=C/c1ccc(O)cc1)CCC=C(C)C [BAKUCHIOL]
Activity (SARS-CoV-2 [10]): Active | Activity [1]: Not Active | CAC [2]: 2.5 µM | Activity (Sus scrofa [4]): 77% | CAC [5]: 6.2 µM | EC50 (SARS-CoV-2 [8]): 5.35 µM | IC50 [6]: 12 µM | EC50 (SARS-CoV-2 [13]): 51.5 µM | Activity (Sus scrofa [7]): 111%

CCOC(=O)c1c(CSc2ccccc2)n(C)c2cc(Br)c(O)c(CN(C)C)c12 [UMIFENOVIR]
Activity (SARS-CoV-2 [10]): Active | Activity [1]: Not Active | CAC [2]: 28 µM | Activity (Sus scrofa [4]): 43% | CAC [5]: 58 µM | EC50 (SARS-CoV-2 [8]): 0.26 µM | IC50 [6]: 8.6 µM | EC50 (SARS-CoV-2 [11]): 0.44 µM | EC50 (SARS-CoV-2 [13]): 25 µM | Activity (Sus scrofa [7]): 58%
